Test results from ChEMBL document CHEMBL5724806, “Unraveling interindividual differences and functional consequences of gut microbial metabolism of immunosuppressants” (2024).

Tests used:
Format in all cases: ADME
[1] = (§1) The drug is tested on Bacteroides fragilis strain: DSM2151 for biotransformation under anaerobic condition. The drug concentrations were measured over 6 timepoints collected between 0 and 12 hours of incubation by liquid-chromatography-coupled mass spectrometry (LC–MS); set-up: dose 5 uM, timepoint 0, 1.5, 3, 6, 9, 12 hours; settings: 5 µM
[2] = The drug is tested on Bacteroides ovatus strain: ATCC 8483 for biotransformation under anaerobic condition. The drug concentrations were measured over 6 timepoints collected between 0 and 12 hours of incubation by liquid-chromatography-coupled mass spectrometry (LC–MS); set-up: dose 5 uM, timepoint 0, 1.5, 3, 6, 9, 12 hours; settings: 5 µM
[3] = The drug is tested on Bacteroides thetaiotaomicron strain: DSM2079 for biotransformation under anaerobic condition. The drug concentrations were measured over 6 timepoints collected between 0 and 12 hours of incubation by liquid-chromatography-coupled mass spectrometry (LC–MS); set-up: dose 5 uM, timepoint 0, 1.5, 3, 6, 9, 12 hours; settings: 5 µM
[4] = The drug is tested on Bacteroides uniformis strain: DSM6597 for biotransformation under anaerobic condition. The drug concentrations were measured over 6 timepoints collected between 0 and 12 hours of incubation by liquid-chromatography-coupled mass spectrometry (LC–MS); set-up: dose 5 uM, timepoint 0, 1.5, 3, 6, 9, 12 hours; settings: 5 µM
[5] = The drug is tested on Bacteroides vulgatus strain: DSM1447 for biotransformation under anaerobic condition. The drug concentrations were measured over 6 timepoints collected between 0 and 12 hours of incubation by liquid-chromatography-coupled mass spectrometry (LC–MS); set-up: dose 5 uM, timepoint 0, 1.5, 3, 6, 9, 12 hours; settings: phocaeicola vulgatus, 5 µM
[6] = The drug is tested on Capnocytophaga ochracea strain: DSM7271 for biotransformation under anaerobic condition. The drug concentrations were measured over 6 timepoints collected between 0 and 12 hours of incubation by liquid-chromatography-coupled mass spectrometry (LC–MS); set-up: dose 5 uM, timepoint 0, 1.5, 3, 6, 9, 12 hours; settings: 5 µM
[7] = The drug is tested on Parabacteroides distasonis strain: DSM20701 for biotransformation under anaerobic condition. The drug concentrations were measured over 6 timepoints collected between 0 and 12 hours of incubation by liquid-chromatography-coupled mass spectrometry (LC–MS); set-up: dose 5 uM, timepoint 0, 1.5, 3, 6, 9, 12 hours; settings: 5 µM
[8] = The drug is tested on Eubacterium rectale strain: DSM17629 for biotransformation under anaerobic condition. The drug concentrations were measured over 6 timepoints collected between 0 and 12 hours of incubation by liquid-chromatography-coupled mass spectrometry (LC–MS); set-up: dose 5 uM, timepoint 0, 1.5, 3, 6, 9, 12 hours; settings: agathobacter rectalis, 5 µM
[9] = The drug is tested on Faecalibacterium prausnitzii strain: DSM17677 for biotransformation under anaerobic condition. The drug concentrations were measured over 6 timepoints collected between 0 and 12 hours of incubation by liquid-chromatography-coupled mass spectrometry (LC–MS); set-up: dose 5 uM, timepoint 0, 1.5, 3, 6, 9, 12 hours; settings: faecalibacterium duncaniae, 5 µM
[10] = The drug is tested on Lactobacillus paracasei strain: ATCC27092 for biotransformation under anaerobic condition. The drug concentrations were measured over 6 timepoints collected between 0 and 12 hours of incubation by liquid-chromatography-coupled mass spectrometry (LC–MS); set-up: dose 5 uM, timepoint 0, 1.5, 3, 6, 9, 12 hours; settings: lacticaseibacillus paracasei, 5 µM
[11] = The drug is tested on Lactobacillus reuteri strain: DSM20016 for biotransformation under anaerobic condition. The drug concentrations were measured over 6 timepoints collected between 0 and 12 hours of incubation by liquid-chromatography-coupled mass spectrometry (LC–MS); set-up: dose 5 uM, timepoint 0, 1.5, 3, 6, 9, 12 hours; settings: limosilactobacillus reuteri, 5 µM
[12] = The drug is tested on Lactobacillus ruminis strain: ATCC25644 for biotransformation under anaerobic condition. The drug concentrations were measured over 6 timepoints collected between 0 and 12 hours of incubation by liquid-chromatography-coupled mass spectrometry (LC–MS); set-up: dose 5 uM, timepoint 0, 1.5, 3, 6, 9, 12 hours; settings: ligilactobacillus ruminis, 5 µM
[13] = The drug is tested on Streptococcus anginosus strain: DSM20563 for biotransformation under anaerobic condition. The drug concentrations were measured over 6 timepoints collected between 0 and 12 hours of incubation by liquid-chromatography-coupled mass spectrometry (LC–MS); set-up: dose 5 uM, timepoint 0, 1.5, 3, 6, 9, 12 hours; settings: 5 µM
[14] = (§2) The drug is tested on Bifidobacterium longum strain: DSM20088 for biotransformation under microaerobic condition. The drug concentrations were measured over 6 timepoints collected between 0 and 12 hours of incubation by liquid-chromatography-coupled mass spectrometry (LC–MS); set-up: dose 5 uM, timepoint 0, 1.5, 3, 6, 9, 12 hours; settings: 5 µM
[15] = The drug is tested on Gemella morbillorum strain: DSM20572 for biotransformation under microaerobic condition. The drug concentrations were measured over 6 timepoints collected between 0 and 12 hours of incubation by liquid-chromatography-coupled mass spectrometry (LC–MS); set-up: dose 5 uM, timepoint 0, 1.5, 3, 6, 9, 12 hours; settings: 5 µM
[16] = The drug is tested on Lactobacillus gasseri strain: DSM20243 for biotransformation under microaerobic condition. The drug concentrations were measured over 6 timepoints collected between 0 and 12 hours of incubation by liquid-chromatography-coupled mass spectrometry (LC–MS); set-up: dose 5 uM, timepoint 0, 1.5, 3, 6, 9, 12 hours; settings: 5 µM
[17] = The drug is tested on Streptococcus anginosus strain: DSM20563 for biotransformation under microaerobic condition. The drug concentrations were measured over 6 timepoints collected between 0 and 12 hours of incubation by liquid-chromatography-coupled mass spectrometry (LC–MS); set-up: dose 5 uM, timepoint 0, 1.5, 3, 6, 9, 12 hours; settings: 5 µM
[18] = The drug is tested on Streptococcus mitis strain: DSM12643 for biotransformation under microaerobic condition. The drug concentrations were measured over 6 timepoints collected between 0 and 12 hours of incubation by liquid-chromatography-coupled mass spectrometry (LC–MS); set-up: dose 5 uM, timepoint 0, 1.5, 3, 6, 9, 12 hours; settings: 5 µM
[19] = The drug is tested on Streptococcus salivarius strain: DSM20560 for biotransformation under microaerobic condition. The drug concentrations were measured over 6 timepoints collected between 0 and 12 hours of incubation by liquid-chromatography-coupled mass spectrometry (LC–MS); set-up: dose 5 uM, timepoint 0, 1.5, 3, 6, 9, 12 hours; settings: 5 µM
[20] = as §1, with “the gut metagenome community of A-02 with ENA study accession number: PRJEB31790” for “Bacteroides fragilis strain: DSM2151”, “7” for “6”; set-up: dose 5 uM, timepoint 0, 0.75, 1.5, 3, 6, 9, 12 hours; settings: 5 µM
[21] = as §1, with “the gut metagenome community of A-03 with ENA study accession number: PRJEB31790” for “Bacteroides fragilis strain: DSM2151”, “7” for “6”; set-up: dose 5 uM, timepoint 0, 0.75, 1.5, 3, 6, 9, 12 hours; settings: 5 µM
[22] = as §1, with “the gut metagenome community of A-07 with ENA study accession number: PRJEB31790” for “Bacteroides fragilis strain: DSM2151”, “7” for “6”; set-up: dose 5 uM, timepoint 0, 0.75, 1.5, 3, 6, 9, 12 hours; settings: 5 µM
[23] = as §1, with “the gut metagenome community of P-03 with ENA study accession number: PRJEB31790” for “Bacteroides fragilis strain: DSM2151”, “7” for “6”; set-up: dose 5 uM, timepoint 0, 0.75, 1.5, 3, 6, 9, 12 hours; settings: 5 µM
[24] = as §1, with “the gut metagenome community of P-04 with ENA study accession number: PRJEB31790” for “Bacteroides fragilis strain: DSM2151”, “7” for “6”; set-up: dose 5 uM, timepoint 0, 0.75, 1.5, 3, 6, 9, 12 hours; settings: 5 µM
[25] = as §1, with “the gut metagenome community of T-05 with ENA study accession number: PRJEB31790” for “Bacteroides fragilis strain: DSM2151”, “7” for “6”; set-up: dose 5 uM, timepoint 0, 0.75, 1.5, 3, 6, 9, 12 hours; settings: 5 µM
[26] = as §2, with “the gut metagenome community of A-01 with ENA study accession number: PRJEB31790” for “Bifidobacterium longum strain: DSM20088”, “7” for “6”; set-up: dose 5 uM, timepoint 0, 0.75, 1.5, 3, 6, 9, 12 hours; settings: 5 µM
[27] = as §2, with “the gut metagenome community of A-09 with ENA study accession number: PRJEB31790” for “Bifidobacterium longum strain: DSM20088”, “7” for “6”; set-up: dose 5 uM, timepoint 0, 0.75, 1.5, 3, 6, 9, 12 hours; settings: 5 µM
[28] = as §2, with “the gut metagenome community of T-02 with ENA study accession number: PRJEB31790” for “Bifidobacterium longum strain: DSM20088”, “7” for “6”; set-up: dose 5 uM, timepoint 0, 0.75, 1.5, 3, 6, 9, 12 hours; settings: 5 µM
[29] = as §2, with “the gut metagenome community of T-03 with ENA study accession number: PRJEB31790” for “Bifidobacterium longum strain: DSM20088”, “7” for “6”; set-up: dose 5 uM, timepoint 0, 0.75, 1.5, 3, 6, 9, 12 hours; settings: 5 µM
[30] = as §2, with “the gut metagenome community of T-04 with ENA study accession number: PRJEB31790” for “Bifidobacterium longum strain: DSM20088”, “7” for “6”; set-up: dose 5 uM, timepoint 0, 0.75, 1.5, 3, 6, 9, 12 hours; settings: 5 µM

Row | SMILES | Bacterial Biotransformation [1] | Bacterial Biotransformation [2] | Bacterial Biotransformation [3] | Bacterial Biotransformation [4] | Bacterial Biotransformation [5] | Bacterial Biotransformation [6] | Bacterial Biotransformation [7] | Bacterial Biotransformation [8] | Bacterial Biotransformation [9] | Bacterial Biotransformation [10] | Bacterial Biotransformation [11] | Bacterial Biotransformation [12] | Bacterial Biotransformation [13] | Bacterial Biotransformation [14] | Bacterial Biotransformation [15] | Bacterial Biotransformation [16] | Bacterial Biotransformation [17] | Bacterial Biotransformation [18] | Bacterial Biotransformation [19] | Bacterial Biotransformation [20] | other results
1 | CCOc1nc2cccc(C(=O)O)c2n1Cc1ccc(-c2ccccc2-c2nnn[nH]2)cc1 | Compound NOT metabolized | Compound NOT metabolized | Compound NOT metabolized | Compound NOT metabolized | Compound NOT metabolized | Compound NOT metabolized | Compound NOT metabolized | Compound NOT metabolized | Compound NOT metabolized | Compound NOT metabolized | Compound NOT metabolized | Compound NOT metabolized | Compound NOT metabolized | Compound NOT metabolized | Compound NOT metabolized | Compound NOT metabolized | Compound NOT metabolized | Compound NOT metabolized | Compound NOT metabolized | Compound NOT metabolized | Bacterial Biotransformation [21]: Compound NOT metabolized; Bacterial Biotransformation [22]: Compound NOT metabolized; Bacterial Biotransformation [23]: Compound NOT metabolized; Bacterial Biotransformation [24]: Compound NOT metabolized; Bacterial Biotransformation [25]: Compound NOT metabolized; Bacterial Biotransformation [26]: Compound NOT metabolized; Bacterial Biotransformation [27]: Compound NOT metabolized; Bacterial Biotransformation [28]: Compound NOT metabolized; Bacterial Biotransformation [29]: Compound NOT metabolized; Bacterial Biotransformation [30]: Compound NOT metabolized
2 | CCOC(=O)[C@H](CCc1ccccc1)N[C@@H](C)C(=O)N1[C@H](C(=O)O)C[C@@H]2CCC[C@@H]21 | Compound NOT metabolized | Compound NOT metabolized | Compound NOT metabolized | Compound NOT metabolized | Compound NOT metabolized | Compound NOT metabolized | Compound NOT metabolized | Compound NOT metabolized | Compound NOT metabolized | Compound NOT metabolized | Compound NOT metabolized | Compound NOT metabolized | Compound NOT metabolized | Compound NOT metabolized | Compound NOT metabolized | Compound NOT metabolized | Compound NOT metabolized | Compound NOT metabolized | Compound metabolized | Compound NOT metabolized | Bacterial Biotransformation [21]: Compound NOT metabolized; Bacterial Biotransformation [22]: Compound NOT metabolized; Bacterial Biotransformation [23]: Compound NOT metabolized; Bacterial Biotransformation [24]: Compound NOT metabolized; Bacterial Biotransformation [25]: Compound NOT metabolized; Bacterial Biotransformation [26]: Compound NOT metabolized; Bacterial Biotransformation [27]: Compound NOT metabolized; Bacterial Biotransformation [28]: Compound NOT metabolized; Bacterial Biotransformation [29]: Compound NOT metabolized; Bacterial Biotransformation [30]: Compound NOT metabolized
3 | C[C@@H](NCCCc1cccc(C(F)(F)F)c1)c1cccc2ccccc12 | Compound NOT metabolized | Compound NOT metabolized | Compound NOT metabolized | Compound NOT metabolized | Compound NOT metabolized | Compound NOT metabolized | Compound NOT metabolized | Compound NOT metabolized | Compound NOT metabolized | Compound NOT metabolized | Compound NOT metabolized | Compound NOT metabolized | Compound NOT metabolized | Compound NOT metabolized | Compound NOT metabolized | Compound NOT metabolized | Compound NOT metabolized | Compound NOT metabolized | Compound NOT metabolized | Compound NOT metabolized | Bacterial Biotransformation [21]: Compound NOT metabolized; Bacterial Biotransformation [22]: Compound NOT metabolized; Bacterial Biotransformation [23]: Compound NOT metabolized; Bacterial Biotransformation [24]: Compound NOT metabolized; Bacterial Biotransformation [25]: Compound NOT metabolized; Bacterial Biotransformation [26]: Compound NOT metabolized; Bacterial Biotransformation [27]: Compound NOT metabolized; Bacterial Biotransformation [28]: Compound NOT metabolized; Bacterial Biotransformation [29]: Compound NOT metabolized; Bacterial Biotransformation [30]: Compound NOT metabolized
